# Results reported in patent publication US20220169598A1, “HALOGENATED PHENYLSULFONAMIDE HYDROXAMIC ACID COMPOUNDS, COMPOSITIONS AND USES THEREOF AS SELECTIVE HDAC6 INHIBITORS” (2681603 ONTARIO INC., priority 2019, published 2022).
# What was measured:
# MV-4-11 = test: Apoptosis induction by FACS (FITC-Annexin V / PI); assay type: cell-based; settings: MV-4-11, increasing concentration of inhibitor
# [1] = Kinetic solubility by analytical HPLC; assay type: physicochemical; settings: PBS with 5% (v/v) DMSO, aqueous with cosolvent or surfactant or cyclodextrin, kinetic from dmso stock; PBS + 5% DMSO; initial concentration 300 μM; read-out: Saturation Concentration
# Description: The initial concentration of each exemplary compound was 300 μM.
# HDAC6 = target: T1, HDAC6 (Homo sapiens, UniProt Q9UBN7); test: in vitro activity-based HDAC assay; assay type: biochemical; settings: human HDAC isoform panel, Table 1; read-out: IC50 HDAC6
# T1 sequence (Q9UBN7 1-1215): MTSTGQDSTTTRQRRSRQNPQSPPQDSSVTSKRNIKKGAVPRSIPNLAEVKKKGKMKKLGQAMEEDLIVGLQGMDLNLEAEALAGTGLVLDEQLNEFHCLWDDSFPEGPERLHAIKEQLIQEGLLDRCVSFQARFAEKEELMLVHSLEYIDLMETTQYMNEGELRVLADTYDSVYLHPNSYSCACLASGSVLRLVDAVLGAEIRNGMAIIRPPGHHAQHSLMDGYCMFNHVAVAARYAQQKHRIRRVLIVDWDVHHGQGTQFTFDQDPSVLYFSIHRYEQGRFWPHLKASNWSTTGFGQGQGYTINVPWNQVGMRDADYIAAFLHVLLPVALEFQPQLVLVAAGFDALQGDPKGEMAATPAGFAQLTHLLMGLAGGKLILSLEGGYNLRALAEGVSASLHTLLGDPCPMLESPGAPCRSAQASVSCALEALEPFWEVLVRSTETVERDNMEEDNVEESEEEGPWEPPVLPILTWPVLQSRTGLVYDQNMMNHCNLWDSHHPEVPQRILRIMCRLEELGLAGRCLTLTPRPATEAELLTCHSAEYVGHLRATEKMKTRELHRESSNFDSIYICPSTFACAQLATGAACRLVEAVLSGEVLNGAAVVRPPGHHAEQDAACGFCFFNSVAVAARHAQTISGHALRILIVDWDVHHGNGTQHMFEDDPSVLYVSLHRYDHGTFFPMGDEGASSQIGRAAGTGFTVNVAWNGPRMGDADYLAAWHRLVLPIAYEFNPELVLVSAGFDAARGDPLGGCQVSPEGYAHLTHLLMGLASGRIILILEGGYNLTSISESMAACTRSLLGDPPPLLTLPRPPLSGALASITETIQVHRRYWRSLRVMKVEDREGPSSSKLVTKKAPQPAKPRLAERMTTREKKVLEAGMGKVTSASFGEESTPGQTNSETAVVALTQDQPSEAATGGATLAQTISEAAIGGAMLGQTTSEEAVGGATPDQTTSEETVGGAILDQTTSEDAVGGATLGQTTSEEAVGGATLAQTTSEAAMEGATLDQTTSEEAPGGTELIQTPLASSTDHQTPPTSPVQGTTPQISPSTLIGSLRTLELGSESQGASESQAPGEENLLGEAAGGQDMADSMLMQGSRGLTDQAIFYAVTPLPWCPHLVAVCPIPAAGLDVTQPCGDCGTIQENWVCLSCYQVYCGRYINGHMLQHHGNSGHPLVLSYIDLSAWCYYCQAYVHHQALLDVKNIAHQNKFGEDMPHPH
# HDAC5 = HDAC5 (Homo sapiens, UniProt Q9UQL6); test: in vitro activity-based HDAC assay; assay type: biochemical; settings: human HDAC isoform panel, Table 1
# HDAC9 = HDAC9 (Homo sapiens, UniProt Q9UKV0); test: in vitro activity-based HDAC assay; assay type: biochemical; settings: human HDAC isoform panel, Table 1
# HDAC10 = target: T2, HDAC10 (Homo sapiens, UniProt Q969S8); test: in vitro activity-based HDAC assay; assay type: biochemical; settings: human HDAC isoform panel, Table 1
# T2 sequence (Q969S8 1-669): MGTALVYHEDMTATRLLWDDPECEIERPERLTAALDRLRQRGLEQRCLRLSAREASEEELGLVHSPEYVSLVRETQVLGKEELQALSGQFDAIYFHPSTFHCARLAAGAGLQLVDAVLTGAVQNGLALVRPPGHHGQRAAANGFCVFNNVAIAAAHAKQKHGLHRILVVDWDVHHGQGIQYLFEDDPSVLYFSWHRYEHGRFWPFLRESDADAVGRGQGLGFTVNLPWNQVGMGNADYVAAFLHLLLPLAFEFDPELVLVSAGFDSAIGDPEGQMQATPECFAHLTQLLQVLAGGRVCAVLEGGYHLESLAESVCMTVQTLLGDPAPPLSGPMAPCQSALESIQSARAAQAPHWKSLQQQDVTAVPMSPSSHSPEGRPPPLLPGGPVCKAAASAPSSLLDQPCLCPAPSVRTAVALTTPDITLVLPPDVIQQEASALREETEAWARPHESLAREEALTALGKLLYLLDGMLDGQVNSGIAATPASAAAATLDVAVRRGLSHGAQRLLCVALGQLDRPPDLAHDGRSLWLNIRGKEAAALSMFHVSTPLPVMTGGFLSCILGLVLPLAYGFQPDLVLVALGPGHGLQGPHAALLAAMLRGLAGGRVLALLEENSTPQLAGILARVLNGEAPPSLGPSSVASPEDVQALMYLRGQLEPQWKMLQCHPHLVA
# HDAC4 = HDAC4 (Homo sapiens, UniProt P56524); test: in vitro activity-based HDAC assay; assay type: biochemical; settings: human HDAC isoform panel, Table 1
# Chain of HDAC4 (P56524 whole entry, canonical isoform): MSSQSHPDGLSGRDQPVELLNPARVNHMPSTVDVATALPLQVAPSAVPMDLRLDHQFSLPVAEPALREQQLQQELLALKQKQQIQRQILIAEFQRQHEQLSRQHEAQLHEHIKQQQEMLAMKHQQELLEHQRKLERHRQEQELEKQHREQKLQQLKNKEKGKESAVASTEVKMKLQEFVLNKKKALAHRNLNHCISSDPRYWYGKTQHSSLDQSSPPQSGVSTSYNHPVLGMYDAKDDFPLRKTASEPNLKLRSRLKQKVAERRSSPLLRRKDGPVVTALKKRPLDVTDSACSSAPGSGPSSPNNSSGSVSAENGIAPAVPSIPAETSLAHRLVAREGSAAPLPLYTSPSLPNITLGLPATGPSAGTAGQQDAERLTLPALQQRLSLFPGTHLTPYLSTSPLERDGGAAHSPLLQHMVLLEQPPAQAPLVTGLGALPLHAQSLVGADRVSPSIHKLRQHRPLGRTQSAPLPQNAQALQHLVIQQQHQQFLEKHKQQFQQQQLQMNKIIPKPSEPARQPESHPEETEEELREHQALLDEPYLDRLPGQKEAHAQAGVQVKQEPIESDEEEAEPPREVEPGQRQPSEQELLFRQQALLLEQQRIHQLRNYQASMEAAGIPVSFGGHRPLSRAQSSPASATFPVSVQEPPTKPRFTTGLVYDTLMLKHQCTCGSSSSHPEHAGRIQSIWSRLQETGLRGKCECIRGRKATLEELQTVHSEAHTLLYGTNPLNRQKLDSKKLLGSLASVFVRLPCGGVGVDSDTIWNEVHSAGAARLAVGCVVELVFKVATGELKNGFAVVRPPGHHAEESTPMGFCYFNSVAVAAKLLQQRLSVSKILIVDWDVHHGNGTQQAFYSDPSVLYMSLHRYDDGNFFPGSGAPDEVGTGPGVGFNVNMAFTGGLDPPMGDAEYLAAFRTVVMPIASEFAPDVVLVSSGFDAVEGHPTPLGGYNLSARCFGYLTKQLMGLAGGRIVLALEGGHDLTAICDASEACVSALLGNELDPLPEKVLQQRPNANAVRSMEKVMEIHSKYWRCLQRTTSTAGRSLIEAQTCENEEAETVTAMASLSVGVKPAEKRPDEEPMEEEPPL
# Chain of HDAC5 (Q9UQL6 whole entry, canonical isoform): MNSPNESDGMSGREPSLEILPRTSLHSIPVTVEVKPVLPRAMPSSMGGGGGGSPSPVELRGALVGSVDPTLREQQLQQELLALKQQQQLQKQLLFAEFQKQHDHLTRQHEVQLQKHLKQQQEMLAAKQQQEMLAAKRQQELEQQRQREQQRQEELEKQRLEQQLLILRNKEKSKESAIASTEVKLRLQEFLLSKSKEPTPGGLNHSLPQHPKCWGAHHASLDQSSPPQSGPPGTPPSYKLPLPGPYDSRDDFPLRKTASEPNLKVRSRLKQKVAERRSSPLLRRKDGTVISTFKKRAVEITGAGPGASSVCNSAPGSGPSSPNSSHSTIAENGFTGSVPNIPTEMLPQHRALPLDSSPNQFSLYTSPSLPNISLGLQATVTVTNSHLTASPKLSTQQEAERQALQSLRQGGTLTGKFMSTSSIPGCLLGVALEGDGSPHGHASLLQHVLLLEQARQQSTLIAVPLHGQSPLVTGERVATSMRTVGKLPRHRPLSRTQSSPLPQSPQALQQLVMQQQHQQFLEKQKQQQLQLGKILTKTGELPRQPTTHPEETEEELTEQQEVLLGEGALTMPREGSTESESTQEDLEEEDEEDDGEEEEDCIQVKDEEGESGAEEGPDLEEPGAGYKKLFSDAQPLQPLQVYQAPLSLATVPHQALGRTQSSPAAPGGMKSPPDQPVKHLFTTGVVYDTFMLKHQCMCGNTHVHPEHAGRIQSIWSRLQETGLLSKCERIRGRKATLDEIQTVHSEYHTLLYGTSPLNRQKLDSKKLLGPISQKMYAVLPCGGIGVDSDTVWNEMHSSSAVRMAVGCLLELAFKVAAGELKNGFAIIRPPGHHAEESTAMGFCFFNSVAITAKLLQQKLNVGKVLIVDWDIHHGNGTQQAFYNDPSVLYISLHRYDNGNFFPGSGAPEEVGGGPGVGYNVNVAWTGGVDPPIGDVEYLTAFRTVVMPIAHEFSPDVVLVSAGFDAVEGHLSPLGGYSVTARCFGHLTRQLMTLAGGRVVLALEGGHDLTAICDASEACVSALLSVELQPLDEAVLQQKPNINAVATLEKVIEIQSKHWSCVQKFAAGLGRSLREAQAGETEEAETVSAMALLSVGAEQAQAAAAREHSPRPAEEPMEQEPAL
# Chain of HDAC9 (Q9UKV0 whole entry, canonical isoform): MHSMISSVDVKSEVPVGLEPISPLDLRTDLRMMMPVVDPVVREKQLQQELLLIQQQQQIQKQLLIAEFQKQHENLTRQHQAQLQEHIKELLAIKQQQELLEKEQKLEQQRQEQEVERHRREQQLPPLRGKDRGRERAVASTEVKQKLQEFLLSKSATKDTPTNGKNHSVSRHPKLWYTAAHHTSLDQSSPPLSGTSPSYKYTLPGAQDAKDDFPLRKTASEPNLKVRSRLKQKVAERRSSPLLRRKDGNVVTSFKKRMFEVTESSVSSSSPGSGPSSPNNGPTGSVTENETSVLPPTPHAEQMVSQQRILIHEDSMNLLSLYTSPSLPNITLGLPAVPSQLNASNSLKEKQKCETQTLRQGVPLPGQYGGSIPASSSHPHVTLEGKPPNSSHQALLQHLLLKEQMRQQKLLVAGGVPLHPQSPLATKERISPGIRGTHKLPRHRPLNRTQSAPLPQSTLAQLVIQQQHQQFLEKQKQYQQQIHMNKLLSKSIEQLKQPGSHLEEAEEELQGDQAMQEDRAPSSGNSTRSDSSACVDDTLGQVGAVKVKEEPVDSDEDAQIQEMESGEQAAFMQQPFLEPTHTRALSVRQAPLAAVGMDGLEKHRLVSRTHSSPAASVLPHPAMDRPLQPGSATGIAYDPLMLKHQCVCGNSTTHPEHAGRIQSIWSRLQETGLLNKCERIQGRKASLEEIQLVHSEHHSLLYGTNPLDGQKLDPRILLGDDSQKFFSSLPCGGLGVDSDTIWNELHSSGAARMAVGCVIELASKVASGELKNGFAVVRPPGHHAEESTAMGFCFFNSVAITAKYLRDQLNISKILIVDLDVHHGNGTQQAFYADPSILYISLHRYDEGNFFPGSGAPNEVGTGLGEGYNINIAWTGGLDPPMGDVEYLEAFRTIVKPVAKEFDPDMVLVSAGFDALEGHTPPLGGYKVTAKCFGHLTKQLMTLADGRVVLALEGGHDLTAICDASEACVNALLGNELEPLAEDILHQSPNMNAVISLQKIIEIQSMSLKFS
SMILES,apoptotic-inducting potential (FACS) (MV-4-11),solubility kinetic [1],IC50 (HDAC6),IC50 (HDAC5),IC50 (HDAC9),IC50 (HDAC10),IC50 (HDAC4)
"O=C(NO)c1ccc(CN(C2CC2)S(=O)(=O)c2cc(F)c(F)c(F)c2F)cc1 [Compound I-13, 4-((N-cyclopropyl-2,3,4,5-tetrafluorophenylsulfonamido)methyl)-N-hydroxybenzamide]",larger populations of cells undergoing early apoptosis,88.1 ± 1.6 µM,9 nM,> 1000 nM,> 1000 nM,> 1000 nM,> 1000 nM
"O=C(NO)c1ccc(CN(Cc2cccnc2)S(=O)(=O)c2cc(F)c(F)c(F)c2F)cc1 [Compound I-18, N-hydroxy-4-((2,3,4,5-tetrafluoro-N-(pyridin-3-ylmethyl)phenylsulfonamido)methyl)benzamide]",larger populations of cells undergoing early apoptosis,142 ± 2.4 µM,2 nM,> 1000 nM,> 1000 nM,551 nM,> 1000 nM
